Results as given in US11083199B2, “Heterocycle derivatives as pesticides” (Bayer Aktiengesellschaft, priority 2017, dated 2021).

Legend:
Format in all cases: in vivo
[1] = system: Myzus persicae; experiment: Myzus persicae oral test; conditions: 120 h, application rate 4 ppm, after 5 days, read-out: efficacy
Experimental: [table] To produce a suitable active ingredient formulation, 1 part by weight of active ingredient is dissolved with the stated parts by weight of solvent and made up to the desired concentration with water. 50 μl of the active ingredient formulation are transferred into microtitre plates and made up to a final volume of 200 μl with 150 μl of IPL41 insect medium (33%+15% sugar). Subsequently, the plates are sealed with parafilm, which a mixed population of green peach aphids (Myzus persicae) within a second microtitre plate is able to puncture and imbibe the solution. After 5 days, the efficacy in % is determined. 100% means that all the aphids have been killed; 0% means that no aphids have been killed.

[2] = system: Myzus persicae; experiment: Myzus persicae spray test; conditions: foliar, 120 h, application rate 100 g/ha, Chinese cabbage leaf discs, after 5 days, read-out: efficacy
Experimental: (§1) [table] To produce a suitable active ingredient formulation, 1 part by weight of active ingredient is dissolved with the specified parts by weight of solvent and made up to the desired concentration with water containing an emulsifier concentration of 1000 ppm. To produce further test concentrations, the formulation is diluted with emulsifier-containing water. Discs of Chinese cabbage leaves (Brassica pekinensis) infested by all stages of the green peach aphid (Myzus persicae) are sprayed with an active ingredient formulation of the desired concentration. After 5 days, the efficacy in % is determined. 100% means that all the aphids have been killed; 0% means that no aphids have been killed.

[3] = system: Phaedon cochleariae; experiment: Phaedon cochleariae spray test; conditions: 168 h, application rate 100 g/ha, larvae, after 7 days, read-out: efficacy
Experimental: as §1, with “pekinensis)” for “pekinensis) infested by all stages of the green peach aphid (Myzus persicae)”, “concentration and, after drying, populated with larvae of the mustard beetle (Phaedon cochleariae).” for “concentration.”, “7” for “5”, “beetle larvae” for “aphids”

[4] = system: Spodoptera frugiperda; experiment: Spodoptera frugiperda spray test; conditions: foliar, 168 h, application rate 100 g/ha, maize leaf discs, caterpillars, after 7 days, read-out: efficacy
Experimental: [table] To produce a suitable active ingredient formulation, 1 part by weight of active ingredient is dissolved with the specified parts by weight of solvent and made up to the desired concentration with water containing an emulsifier concentration of 1000 ppm. To produce further test concentrations, the formulation is diluted with emulsifier-containing water. Leaf discs of maize (Zea mays) are sprayed with an active ingredient formulation of the desired concentration and, after drying, populated with caterpillars of the fall armyworm (Spodoptera frugiperda). After 7 days, the efficacy in % is determined. 100% means that all the caterpillars have been killed; 0% means that no caterpillar has been killed.

SMILES	pest or weed control at 4 ppm [1] [%]	pest or weed control at 100 g/ha [2] [%]	pest or weed control at 100 g/ha [3] [%]	pest or weed control at 100 g/ha [4] [%]
CCS(=O)(=O)c1c(-c2nc3cc(C(F)(F)F)ncc3n2C)nc(Br)n1C(C)C [Example I-002]	100	–	–	–
CCS(=O)(=O)c1c(-c2nc3cc(C(F)(F)F)ncc3n2C)nc(Br)n1C [Example I-004, 2-[2-Bromo-5-(ethylsulfonyl)-1-methyl-1H-imidazol-4-yl]-3-methyl-6-(trifluoromethyl)-3H-imidazo[4,5-c]pyridine]	100	–	–	–
CCS(=O)(=O)c1c(-c2nc3cc(C(F)(F)F)ncc3n2C)nc(-c2cnccc2F)n1C [Example I-017]	100	100	–	–
CCS(=O)(=O)c1c(-c2nc3cc(C(F)(F)F)ncc3n2C)nc(C#CC2CC2)n1C [Example I-024]	90	–	100	100
CCS(=O)(=O)c1c(-c2nc3cc(C(F)(F)F)ncc3n2C)nc(-n2cccn2)n1C [Example I-026]	100	90	100	–
CCS(=O)(=O)c1c(-c2nc3cc(C(F)(F)F)ncc3n2C)nc(-n2ccnc2)n1C [Example I-028]	100	90	100	–
CCS(=O)(=O)c1c(-c2nc3cc(C(F)(F)F)ncc3n2C)nc(-c2cc(Cl)sc2Cl)n1C [Example I-031]	100	–	–	–
CCS(=O)(=O)c1c(-c2nc3cc(C(F)(F)F)ncc3n2C)nc(-c2cccn2C)n1C [Example I-032]	100	–	–	–
CCS(=O)(=O)c1c(-c2nc3cc(C(F)(F)F)ncc3n2C)nc(-c2cn[nH]c2)n1C [Example I-034]	100	90	–	–
CCSc1c(-c2nc3cc(C(F)(F)F)ncc3n2C)nc(C(=O)OC)n1C [Example I-035, Methyl 5-(ethylsulfanyl)-1-methyl-4-[3-methyl-6-(trifluoromethyl)-3H-imidazo[4,5-c]pyridin-2-yl]-1H-imidazole-2-carboxylate]	–	–	83	–
CCS(=O)(=O)c1c(-c2nc3cc(C(F)(F)F)ncc3n2C)nc(C(=O)OC)n1C [Example I-036, Methyl 5-(ethylsulfonyl)-1-methyl-4-[3-methyl-6-(trifluoromethyl)-3H-imidazo[4,5-c]pyridin-2-yl]-1H-imidazole-2-carboxylate]	100	100	100	–
CCS(=O)(=O)c1c(-c2nc3cc(C(F)(F)F)ncc3n2C)nc(C(=O)NCC(F)(F)F)n1C [Example I-037]	90	–	–	–
CCS(=O)(=O)c1c(-c2nc3cc(C(F)(F)F)ncc3n2C)nc(-c2cccs2)n1C [Example I-044]	100	–	–	–
CCS(=O)(=O)c1c(-c2nc3cc(C(F)(F)F)ncc3n2C)nc(C#N)n1C [Example I-045, 5-(Ethylsulfonyl)-1-methyl-4-[3-methyl-6-(trifluoromethyl)-3H-imidazo[4,5-c]pyridin-2-yl]-1H-imidazole-2-carbonitrile]	100	–	–	–
CCS(=O)(=O)c1c(-c2nc3cc(C(F)(F)F)ncc3n2C)nc(C(=S)NC)n1C [Example I-047]	100	100	–	–
CCS(=O)(=O)c1c(-c2nc3cc(C(F)(F)F)ncc3n2C)nc(C(=S)N(C)C)n1C [Example I-048]	100	90	–	–
CCS(=O)(=O)c1c(-c2nc3cc(C(F)(F)F)ncc3n2C)nc(-c2cncs2)n1C [Example I-051]	100	90	–	–
CCS(=O)(=O)c1c(-c2nc3cc(C(F)(F)F)ncc3n2C)nc(-c2cncn2C)n1C [Example I-052]	100	–	–	–
CCS(=O)(=O)c1c(-c2nc3cc(C(F)(F)F)ncc3n2C)nc(-c2nccn2C)n1C [Example I-053]	100	–	–	–
CCS(=O)(=O)c1c(-c2nc3cc(C(F)(F)F)nnc3n2C)nc(Br)n1C [Example I-056]	100	–	–	–

SMILES	pest or weed control at 4 ppm [1] [%]	pest or weed control at 100 g/ha [2] [%]	pest or weed control at 100 g/ha [3] [%]	pest or weed control at 100 g/ha [4] [%]
CCS(=O)(=O)c1c(-c2nc3cc(C(F)(F)F)ncc3n2C)nc(-c2cnc(C)s2)n1C [Example I-058]	100	90	–	–
CCS(=O)(=O)c1c(-c2nc3cc(C(F)(F)F)ncc3n2C)nc(-c2cnc(Cl)n2C)n1C [Example I-059]	100	100	100	–
CC(C)S(=O)(=O)c1c(-c2nc3cc(C(F)(F)F)ncc3n2C)nc(-c2ccn(C)n2)n1C [Example I-061]	100	100	100	–
CCS(=O)(=O)c1c(-c2nc3cc(C(F)(F)F)ncc3n2C)nc(-c2ccnn2C)n1C [Example I-062]	100	100	100	–
CCS(=O)(=O)c1c(-c2nc3cc(C(F)(F)F)ncc3n2C)nc(C)n1C [Example I-064]	100	100	83	–
CCS(=O)(=O)c1c(-c2nc3cc(C(F)(F)F)ncc3n2C)nc(-c2ccc(CC#N)cc2)n1C [Example I-065]	100	100	–	–
CCS(=O)(=O)c1c(-c2nc3cc(C(F)(F)F)ncc3n2C)nc(-c2cnn(CC(F)(F)F)c2)n1C [Example I-067]	100	100	100	–
CCS(=O)(=O)c1c(-c2nc3cc(C(F)(F)F)ncc3n2C)nc(-c2cc(C(F)(F)F)nn2C)n1C [Example I-068]	100	–	100	–
CCS(=O)(=O)c1c(-c2nc3cc(C(F)(F)F)ncc3n2C)nc(C2=CCCCC2)n1C [Example I-071]	–	90	–	–
CCS(=O)(=O)c1c(-c2nc3cc(C(F)(F)F)ncc3n2C)nc(C2=CCC(C(F)(F)F)CC2)n1C (centres unmarked) [Example I-072]	100	–	–	–
CCS(=O)(=O)c1c(-c2nc3cc(C(F)(F)F)ncc3n2C)nc(-c2ccc(C(F)(F)F)cc2C)n1C [Example I-078]	90	–	100	100
CCS(=O)(=O)c1c(-c2nc3cc(C(F)(F)F)ncc3n2C)nc(-c2ccc(Cl)c(C#N)c2)n1C [Example I-079]	100	90	83	–
CCS(=O)(=O)c1c(-c2nc3cc(C(F)(F)F)ncc3n2C)nc(-c2ccc(C#N)c(C(F)(F)F)c2)n1C [Example I-080]	100	–	100	–
CCS(=O)(=O)c1c(-c2nc3cc(C(F)(F)F)ncc3n2C)nc(-c2cc(Cl)c(C(F)(F)F)cc2C)n1C [Example I-081]	100	–	100	100
CCc1nc(-c2nc3cc(C(F)(F)F)ncc3n2C)c(S(=O)(=O)CC)n1C [Example I-084]	100	90	–	–
CCS(=O)(=O)c1c(-c2nc3cc(C(F)(F)F)ncc3n2C)nc(CCC2CC2)n1C [Example I-085, 2-[2-(2-Cyclopropylethyl)-5-(ethylsulfonyl)-1-methyl-1H-imidazol-4-yl]-3-methyl-6-(trifluoromethyl)-3H-imidazo[4,5-c]pyridine]	100	90	–	–
CCS(=O)(=O)c1c(-n2cc3cnc(C(F)(F)F)cc3n2)nc(-c2ccc(Cl)cc2)n1C [Example I-093]	100	–	100	100
CCS(=O)(=O)c1c(-n2cc3ncc(C(F)(F)F)cc3n2)nc(-c2ccc(Cl)cc2)n1C [Example I-094]	100	–	83	100
CCS(=O)(=O)c1c(-n2cc3cnc(C(F)(F)F)cc3n2)nc(-c2ccccc2)n1C [Example I-095]	100	90	–	100
